What was measured:
[1] = Stability of a solution in pH 8 aqueous buffer on standing for 12 weeks at 50° C.; type: physicochemical
[2] = Aqueous solubility; type: physicochemical; details: water, 4° C.
[3] = aqueous solution; Higuchi et al. 1955; cited from earlier work

number of degradation products detected by H.P.L.C. ([1]; H.P.L.C. techniques)	hydrolytic stability ([1]; aqueous solutions)	remaining at 2016 h ([1]; pH 8 aqueous buffer, 12 weeks at 50° C., read-out: eletriptan left (relative to the original weight))	solubility [2]	SMILES	effect of caffeine on hydrolytic degradation [3]
At least five	hydrolytically unstable	< 85%	> 100 mg/mL	CN1CCC[C@@H]1Cc1c[nH]c2ccc(CCS(=O)(=O)c3ccccc3)cc12 [Eletriptan hemisulphate]	
				CCOC(=O)c1ccc(N)cc1 [benzocaine]	substantially reduces the hydrolytic degradation

Source: patent publication US6166025A, “Pharmaceutical compositions containing eletriptran hemisulphate and caffeine” (Pfizer Inc., priority 1997, dated 2000)
